Assay results published in paper PMC3854790, “CRIS—A Novel cAMP-Binding Protein Controlling Spermiogenesis and the Development of Flagellar Bending” (PLoS Genetics, 2013).

Biological target: T1, mCRIS CNBD (cit-mCNBD-cer FRET sensor) (Mus musculus, UniProt Q9D5U8)
T1 construct: gene Cnbd2; CNBD, aa 202-353 of mCRIS cDNA from mouse testis; citrine at N terminus, cerulean-His10 at C terminus (also printed cer-mCNBD-cit); expressed in CHO cells
Experiment: intramolecular FRET (cerulean/citrine ratio), live-cell imaging
Format: cell-based
Settings: 3 mM 8-Br-cAMP perfused on CHO cells, 10 min

T1 sequence (Q9D5U8 202-353): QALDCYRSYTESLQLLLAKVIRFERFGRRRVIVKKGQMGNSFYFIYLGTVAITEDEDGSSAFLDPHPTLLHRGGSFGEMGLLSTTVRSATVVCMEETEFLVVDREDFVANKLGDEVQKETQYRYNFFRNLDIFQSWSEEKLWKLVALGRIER

Q: How did the “change in FRET (normalized emission ratio)” value turn out when `Nc1ncnc2c1nc(Br)n2[C@@H]1O[C@@H]2COP(=O)(O)O[C@H]2[C@H]1O` [8-Br-cAMP] was run?
A: Its value is “Addition of 8-Br-cAMP, a membrane-permeable cAMP analogue, or NKH477, an activator of adenylyl cyclases, changed”.
